What was measured:
[1] = biological target: T7 RNA polymerase (Escherichia phage T7, UniProt P00573); details: ribonucleotide triphosphates, FIG. 7
[2] = PCR incorporation of d5SICS α-thiotriphosphate opposite dNaM; format: biochemical; details: standard PCR
Description: The amplification efficiency and fidelity of incorporation of d(5SICS-αS)TP is greater than 99% and virtually identical to results obtained with d5SICS. To functionalize this unnatural base pair, we reacted the site-specifically incorporated phosphorothioate bond with iodoacetyl-PEG2-biotin to label the DNA duplex with the biotin functionality.^8 To characterize this site-specific adduct, we incubated it in the presence of streptavidin and then quantified the functionalization by gel shift assay. We were able to convert 60-70% of the phosphorothioate bond to the functionalized derivative, which is a standard efficiency (70%) for labeling protocols previously reported in literature (See Fidanza, J. A.; Ozaki, H.; McLaughlin, L. W., Site-specific labeling of DNA sequences containing phosphorothioate diesters. J. Am. Chem. Soc. […], 114 (14), 5509-5517.). These conjugated derivatives show high stability under conditions typical for heat denaturation of DNA duplexes, i.e. at 50° C. overnight within the range of pH 6.0-8.3 (<10% decomposition), as well as for at 95° C. for 3 minutes at pH 8.3 (<5% decomposition). We envision that the phosphorothioate strategy can be equally well employed with other unnatural base pairs, including d5SICS-dMMO2 and d5SICS-dNaM.

T7 RNA polymerase, sequence (P00573 whole entry): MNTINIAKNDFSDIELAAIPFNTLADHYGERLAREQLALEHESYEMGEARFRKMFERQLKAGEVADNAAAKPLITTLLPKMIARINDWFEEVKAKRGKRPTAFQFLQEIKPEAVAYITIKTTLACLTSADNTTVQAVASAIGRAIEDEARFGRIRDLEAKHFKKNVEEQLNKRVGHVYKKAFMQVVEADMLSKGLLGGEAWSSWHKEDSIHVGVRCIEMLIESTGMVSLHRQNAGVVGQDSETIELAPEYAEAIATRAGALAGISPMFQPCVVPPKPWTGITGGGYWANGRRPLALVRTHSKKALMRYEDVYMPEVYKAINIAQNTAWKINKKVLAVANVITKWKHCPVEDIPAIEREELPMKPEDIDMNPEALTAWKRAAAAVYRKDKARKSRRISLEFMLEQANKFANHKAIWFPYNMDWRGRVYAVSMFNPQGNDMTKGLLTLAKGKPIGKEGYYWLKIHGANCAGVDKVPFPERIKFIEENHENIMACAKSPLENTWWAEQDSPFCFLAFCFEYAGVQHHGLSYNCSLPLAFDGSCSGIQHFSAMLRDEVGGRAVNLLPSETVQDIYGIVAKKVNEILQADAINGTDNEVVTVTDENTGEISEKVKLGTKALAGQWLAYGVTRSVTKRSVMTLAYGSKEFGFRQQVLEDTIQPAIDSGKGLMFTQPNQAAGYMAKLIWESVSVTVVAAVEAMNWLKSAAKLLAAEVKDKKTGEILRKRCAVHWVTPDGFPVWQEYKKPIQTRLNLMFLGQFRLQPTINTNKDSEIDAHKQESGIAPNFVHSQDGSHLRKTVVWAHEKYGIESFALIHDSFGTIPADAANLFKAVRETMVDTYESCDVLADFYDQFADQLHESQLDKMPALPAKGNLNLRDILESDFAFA

Compound | transcription into RNA [1] | amplification efficiency and fidelity of incorporation [2]
COc1cc(C)c(C#CCNC(=O)C(Cl)Cl)cc1[C@@H]1O[C@H](COP(=O)(O)OP(=O)(O)OP(=O)(O)O)[C@@H](O)[C@H]1O [MMO2^PA] | high efficiency and fidelity | 
Cc1ccc2c(=S)n([C@H]3C[C@H](O)[C@@H](COP(O)(=S)OP(=O)(O)OP(=O)(O)O)O3)ccc2c1 (some centres unmarked) [d(5SICS-αS)TP] |  | greater than 99%

— patent US11634451B2, “Method for the site-specific enzymatic labelling of nucleic acids in vitro by incorporation of unnatural nucleotides” (The Scripps Research Institute, priority 2013, dated 2023)
